Source: patent publication US12383537B2, “(3S)-and (3R)-6,7-bis(hydroxymethyl)-1H,3H-pyrrolo[1,2-c]thiazoles as P53 activators” (UNIVERSIDADE DE COIMBRA, priority 2018, dated 2025)
Blank lines part the entries; values can stand above or below the compound they belong to.

Columns and labels:
HCT116 p53+/+ = experiment: sulforhodamine B (SRB) growth inhibition assay; format: cell-based, human; conditions: for IC50: HCT116 p53+/+, 48 hours incubation, SRB assay; for p53-dependence of anti-proliferative effect: comparison of IC50 in HCT116 p53+/+ and HCT116 p53−/−
Experimental: (§1) Cancer cells were plated at 5.0×10^3 cells/well in 96-well plates and incubated for 24 hours. Cells were then exposed to serial dilutions of MANIO, CP-31398 or PRIMA-1MET (from 0.3 to 80 μM). The effect of the compounds was analyzed following 48 hours incubation, using the sulforhodamine B (SRB) assay. The solvent DMSO corresponding to the maximum concentration used in these assays (0.025%) was included as control. Results are the mean±S.E.M. of 3-5 independent experiments.
as §1, with “plated” for “plated at 5.0×10^3 cells/well”, “compound” for “MANIO, CP-31398 or PRIMA-1MET”, “compound” for “compounds”

HCT116 p53−/− = experiment: sulforhodamine B (SRB) growth inhibition assay; format: cell-based, human
Experimental: as §1
as §1, with “plated” for “plated at 5.0×10^3 cells/well”, “compound” for “MANIO, CP-31398 or PRIMA-1MET”, “compound” for “compounds”

H1299 (p53-null) = experiment: sulforhodamine B (SRB) growth inhibition assay; format: cell-based; conditions: Homo sapiens, NCI-H1299, H1299, 48 hours incubation
Experimental: as §1, with “plated” for “plated at 5.0×10^3 cells/well”, “compound” for “MANIO, CP-31398 or PRIMA-1MET”, “compound” for “compounds”

H460 (wtp53) = experiment: sulforhodamine B (SRB) growth inhibition assay; format: cell-based; conditions: Homo sapiens, NCI-H460, H460, 48 hours incubation
Experimental: as §1, with “plated” for “plated at 5.0×10^3 cells/well”, “compound” for “MANIO, CP-31398 or PRIMA-1MET”, “compound” for “compounds”

HT-29 (mutp53 R273H) = experiment: sulforhodamine B (SRB) growth inhibition assay; format: cell-based; conditions: Homo sapiens, HT-29, 48 hours incubation
Experimental: as §1, with “plated” for “plated at 5.0×10^3 cells/well”, “compound” for “MANIO, CP-31398 or PRIMA-1MET”, “compound” for “compounds”

HepG2 (wtp53) = experiment: sulforhodamine B (SRB) growth inhibition assay; format: cell-based; conditions: Homo sapiens, HepG2, 48 hours incubation
Experimental: as §1, with “plated” for “plated at 5.0×10^3 cells/well”, “compound” for “MANIO, CP-31398 or PRIMA-1MET”, “compound” for “compounds”

Huh-7 (mutp53 Y220C) = experiment: sulforhodamine B (SRB) growth inhibition assay; format: cell-based; conditions: Homo sapiens, Huh-7, 48 hours incubation
Experimental: as §1, with “plated” for “plated at 5.0×10^3 cells/well”, “compound” for “MANIO, CP-31398 or PRIMA-1MET”, “compound” for “compounds”

[1] = system: MDA-MB-468 (mut p53 R273H); experiment: sulforhodamine B (SRB) growth inhibition assay; format: cell-based; conditions: Homo sapiens, MDA-MB-468, 48 hours incubation
Experimental: as §1, with “plated” for “plated at 5.0×10^3 cells/well”, “compound” for “MANIO, CP-31398 or PRIMA-1MET”, “compound” for “compounds”

SW837 (mutp53 R248W) = experiment: sulforhodamine B (SRB) growth inhibition assay; format: cell-based; conditions: Homo sapiens, SW837, 48 hours incubation
Experimental: as §1, with “plated” for “plated at 5.0×10^3 cells/well”, “compound” for “MANIO, CP-31398 or PRIMA-1MET”, “compound” for “compounds”

[2] = system: skin cancer cell lines (A375, SCC4925, A375C5 cells); experiment: anti-proliferative effect in skin cancer cell lines; format: cell-based; conditions: range over A375, SCC4925, A375C5 cells
[3] = system: MCF7 breast cancer cell lines; conditions: cited from earlier work
[4] = system: wild-type p53-expressing cancer cells (colon HCT116 p53+/+, breast MCF7, and lung H460 cells); experiment: growth inhibition (SRB) in panel of wild-type p53 cancer cell lines; format: cell-based; conditions: Homo sapiens, range over HCT116 p53+/+, 48 hours, read-out: IC50 (concentration of compound that causes 50% growth inhibition)
Experimental: (§2) FIG. 2 illustrates the growth inhibitory effect of MANIO in a panel of human cancer cell lines (HCT116 p53+/+, MCF7, H460, MDA-MB-468, HT-29, SW837, Huh-7, HCT116 p53−/−, H1299, HCC1937). IC50 values were determined by the sulforhodamine B assay after 48 hours treatment with MANIO. Data are mean±SEM (n=4-5).
(§3) The compound (3S)-6,7-bis(hydroxymethyl)-1H,3H-pyrrolo[1,2-c]thiazole, MANIO, inhibited the growth of tumor cells expressing wild-type and mutant p53 forms, with much lower anti-proliferative effect on p53-null cancer cells: The activity of the compound (FIG. 1, with R^1═H, R^2=Ph and R^3=Me) was tested in an array of cancer cell lines with different p53 status.

[5] = system: mutant p53-expressing cancer cells (breast MDA-MB-468, rectum SW837, colon HT29, and hepatocarcinoma Huh-7 cells); experiment: growth inhibition (SRB) in panel of mutant p53 cancer cell lines; format: cell-based; conditions: Homo sapiens, range over MDA-MB-468, SW837, HT29, Huh-7, 48 hours, read-out: IC50 (concentration of compound that causes 50% growth inhibition)
Experimental: as §2, §3

[6] = system: p53-null cancer cells (colon HCT116 p53−/−, breast H1299 and HCC1937 cells); experiment: growth inhibition (SRB) in panel of p53-null cancer cell lines; format: cell-based; conditions: Homo sapiens, range over HCT116 p53−/−, 48 hours, read-out: IC50 (concentration of compound that causes 50% growth inhibition)
Experimental: as §2, §3

[7] = system: HCT116 p53+/+ and HCT116 p53−/− cells; experiment: colony formation assay; format: cell-based, human; conditions: 14 days of treatment
Excerpt: FIG. 4 illustrates the effect of MANIO on HCT116 p53+/+ (A) and HCT116 p53−/− (B) cell colony formation after 14 days of treatment.
MANIO had p53-dependent anti-proliferative effect in colon carcinoma cells: The activity of the compound as wild-type p53 activator was studied in colon carcinoma cells with (HCT116 p53+/+) and without (HCT116 p53−/−) p53 (FIG. 3; Table 1). The IC50 value of MANIO in HCT116 p53+/+ cells was about […] lower than that obtained in HCT116 p53−/− cells, indicating a p53-dependent anti-proliferative effect.

HCT116 cells [8] = experiment: cell cycle analysis by flow cytometry (propidium iodide); format: cell-based, human; conditions: 1 μM and 2.5 μM, 48 hours
Experimental: (§4) FIG. 5 illustrates the effect of 1 μM and 2.5 μM MANIO on cell cycle progression (A) and apoptosis (B) in HCT116 p53+/+ and HCT116 p53−/− cells. (A) Cell cycle phases were analysed by flow cytometry using propidium iodide (PI) and quantified using the FlowJo software, after 48 hours MANIO treatment. […] (B) Apoptosis was analysed by flow cytometry using FITC-Annexin V and PI, after 48 hours or 72 hours MANIO treatment.

HCT116 cells [9] = experiment: apoptosis by flow cytometry (FITC-Annexin V and PI); format: cell-based, human; conditions: 1 μM and 2.5 μM, 48 hours or 72 hours
Experimental: as §4

[10] = system: p53 in HCT116 p53+/+ cells; experiment: Western blot and RT-qPCR of p53 and p53 target genes; format: cell-based, human
Experimental: FIG. 6 illustrates the MANIO effect on protein levels of p53 (A), the mRNA (B) and protein (C) expression levels of p53 target genes and PARP cleavage, in HCT116 p53+/+ and HCT116 p53−/− cells. (B) mRNA levels of p53 target genes in HCT116 cells (MDM2, CDKN1A, GADD45A, BAX, TNFRSF10B, PUMA, NOXA), after 48 hours treatment with MANIO, or DMSO, determined by RT-qPCR. Fold of induction is relative to DMSO. […] Immunoblots represent one of three independent experiments. GAPDH was used as a loading control.

[11] = system: mutant p53 forms ectopically expressed in p53-null H1299 cells; experiment: growth inhibition (SRB) in mutant p53-transfected H1299 cells; format: cell-based, human; conditions: R282W, R248W, R280K, R273H, R273C, G245D, R175H, R248Q; 48 hours; versus empty vector
Experimental: FIG. 7 illustrates the growth inhibitory effect of MANIO in mutant p53-transfected H1299 cells. H1299 cells were transfected with pcDNA3 plasmid expressing different p53 mutants (R282W, R248W, R280K, R273H, R273C, G245D, R175H, R248Q, Y220C, G245S), or with the empty pcDNA3 plasmid, using ScreenFect®A. The growth inhibitory effect was evaluated by sulforhodamine B assay after 48 hours treatment with MANIO.

HCT116 p53+/+ cells [12] = experiment: Comet assay (genotoxicity); format: cell-based, human; conditions: MANIO 1 and 2.5 μM; etoposide 50 μM
Excerpt: Scale bar=20 μm; Magnification=200×.
For that purpose, the Comet assay was used, which measures the ability of genotoxic agents to induce DNA strand breaks in eukaryotic cells.

HCT116 p53+/+ cells [13] = experiment: wound healing assay (cell migration); format: cell-based, human; conditions: 0.2 and 0.375 μM
Experimental: FIG. 9 illustrates the prevention of HCT116p53+/+ cell migration by MANIO. Confluent cells were treated with 0.20 and 0.375 μM MANIO or DMSO, and observed at different time-points in the wound healing assay (scale bar=50 μm and magnification=100×).
MANIO prevented cell migration of human colon cancer cells: The effect of MANIO on the migration ability of HCT116 p53+/+ cells was also studied.

HCT116 p53+/+ tumors = experiment: in vivo xenograft mouse model; design: species or system Swiss nude mice; conditions: versus vehicle
Experimental: FIG. 10 illustrates the in vivo antitumor activity of MANIO. (A) Swiss nude mice were implanted subcutaneous with xenografts of 1.5×10^6 HCT116 p53+/+ cells. The treatment was initiated when palpable tumors were established (˜100 mm3) and consisted in 4 intraperitoneal injections (2 times per week) of vehicle (control) or 100 mg/kg of MANIO (n=5 for each group). […] (B) The tumor weight after MANIO or vehicle (control) treatment was measured; data are mean±SEM (*p<0.05; unpaired Student's t-test). […] This description is of course not in any way restricted to the forms of implementation presented herein and any person with an average knowledge of the area can provide many possibilities for modification thereof without departing from the general idea as defined by the claims. The preferred forms of implementation described above can obviously be combined with each other. The following claims further define the preferred forms of implementation.

[14] = Homo sapiens, HCT-116, 48 hours incubation

IC50 (HCT116 p53+/+; Homo sapiens, HCT-116): 5.11 ± 0.42 µM
IC50 (HCT116 p53−/−; [14]): 51.8 ± 2.73 µM
IC50 (H1299 (p53-null)): 25.5 ± 2.38 µM
IC50 (H460 (wtp53)): 1.8 ± 0.089 µM
IC50 (HT-29 (mutp53 R273H)): 5.88 ± 1.28 µM
IC50 (HepG2 (wtp53)): 50.3 ± 1.63 µM
IC50 (Huh-7 (mutp53 Y220C)): 6.43 ± 0.32 µM
IC50 [1]: 0.91 ± 0.0095 µM
IC50 (SW837 (mutp53 R248W)): 7.35 ± 0.89 µM
IC50 [2]: 25 to 35 µM
SMILES: Cc1c(CO)c(CO)c2n1[C@@H](c1ccccc1)SC2 [(3R)-6,7-Bis (hydroxymethyl)-5-methyl-3-phenyl-1H,3H-pyrrolo[1,2-c]thiazole]
p53-dependence of anti-proliferative effect (HCT116 p53+/+): relevant p53-dependent anti-proliferative activity
anti-proliferative activity [3]: potent anti-proliferative activity

IC50 (HCT116 p53+/+): 3.4 ± 0.1 µM
IC50 (HCT116 p53−/−; 48 hours incubation): 7.3 ± 0.6 µM
SMILES: COc1ccc(/C=C/c2nc(NCCCN(C)C)c3ccccc3n2)cc1 [CP-31398, reference compound]
p53-dependence of anti-proliferative effect (HCT116 p53+/+): lower p53-dependence than the compound

IC50 in HCT116 p53+/+ cells lower than in HCT116 p53−/− cells (HCT116 p53+/+; HCT116 p53+/+ versus HCT116 p53−/−): about 50 fold
IC50 (HCT116 p53+/+; Homo sapiens, HCT-116): 0.96 ± 0.04 µM
IC50 (HCT116 p53−/−; [14]): 48.2 ± 1.97 µM
IC50 [4]: 0.2 to 0.96 µM
IC50 [5]: 0.2 to 3.2 µM
IC50 [6]: 28.5 to 48.2 µM
IC50 [2]: 25 to 35 µM
SMILES: Cc1c(CO)c(CO)c2n1[C@H](c1ccccc1)SC2 [MANIO, (3S)-6,7-Bis(hydroxymethyl)-5-methyl-3-phenyl-1H,3H-pyrrolo[1,2-c]thiazole]
colony-forming ability [7]: reduce the colony-forming ability of HCT116 in a p53-dependent manner
cell cycle progression (HCT116 cells [8]): induction of a G2/M-phase cell arrest
apoptosis (HCT116 cells [9]): apoptotic cell death
mRNA and proteins encoded by p53 target genes ([10]; 1 μM): increased
p53 protein levels ([10]; 1 μM, 24, 48 and 72 hours): increased the p53 protein levels
growth inhibition of cells transfected with p53 mutants [11]: significant growth inhibition
percentage of tail DNA (DNA damage) (HCT116 p53+/+ cells [12]): did not significantly increase the percentage of tail DNA
wound closure (HCT116 p53+/+ cells [13]): significantly reduced the wound closure
mice weight during treatment (HCT116 p53+/+ tumors; 100 mg/kg intraperitoneal, 2 times per week): no significant differences between control and MANIO-treated mice weight
growth of the HCT116 p53+/+ tumors (HCT116 p53+/+ tumors; four intraperitoneal administrations of 100 mg/kg): significantly inhibited
anti-proliferative activity [3]: potent anti-proliferative activity

SMILES: COCC1(CO)C(=O)C2CCN1CC2 (stereo not drawn) [PRIMA-1^MET, reference compound]
IC50 (HCT116 p53+/+): 19.9 ± 4 µM
p53-dependence of anti-proliferative effect (HCT116 p53+/+): lower p53-dependence than the compound
IC50 (HCT116 p53−/−; 48 hours incubation): 13.1 ± 2 µM
